# Assay results from US9708336B2, “Metallo-beta-lactamase inhibitors” (priority 2014, dated 2017).
# Where two headings read alike, the source gives them in different places.
# Assays:
# IMP-1 = IMP-1 (Serratia marcescens, UniProt P52699); assay: biochemical; format: biochemical; settings: read-out: IMP-1 IC50
# NDM-1 = NDM-1 (Klebsiella pneumoniae, UniProt C7C422); assay: biochemical; format: biochemical; settings: read-out: NDM-1 IC50
# [1] = test system: Serratia marcescens expressing IMP-1 (CL5741); assay: Antibiotic potentiation activity: synergistic concentration (MITC95) with imipenem, OD600 growth; format: cell-based; settings: for Serratia marcescens MITC95: 95% growth inhibition; for Serratia marcescens expressing IMP-1 (CL5741) MITC95: concentration giving 95% inhibition of bacterial growth
# Procedure: (§1) Antibiotic Potentiation Activity: Determination of Synergistic Concentration
# (§2) The bacterial strains tested included the clinical strains Escherichia coli expressing NDM-1 (CLB30005, CLB30016), Serratia marcescens expressing IMP-1 (CL5741), and Klebsiella pneumoniae expressing VIM-1 (IHMA599644) Inhibitor activity was measured in the presence and absence of imipenem in a 384-well microplate.
# (§3) The clinical strains CLB30016, CL5741 and IHMA599644 were grown on trypticase soy agar containing 5% sheep's blood. The clinical strain CLB30005 was grown on Mueller Hinton broth agar containing 8 ug/ml imipenem. The bacteria on agar plates were incubated at 35° C. with humidity overnight. The following day, individual colonies from each clinical strain were picked and resuspended in 5 ml saline to attain an OD600 of 0.14, 0.11, 0.15 and 0.13, for CLB30005, CLB30016, CL5741 and IHMA599644, respectively. These were further diluted 1:100 into 1.1×CAMHB and used to inoculate the test wells as described below.
# (§4) Imipenem in 10 mM 3-(N-morpholino)propanesulfonic acid (MOPS, pH 7) was stored in single use aliquots at −80° C. […] On the day of the assay, 4 μl of antibiotic was added to 45 ul of bacteria followed by 1 μl of test compound and mixed by pipetting and with an orbital shaker. The concentration of antibiotic used in the assay was 4 μg/ml, or optionally 1 μg/ml. Microplates were covered and incubated at 35° C. for 22 hours to 24 hours. At the end of the incubation, absorbance was determined using a spectrophotometer.
# [2] = test system: Klebsiella pneumoniae expressing VIM-1 (IHMA599644); assay: as above; format: cell-based; settings: for Klebsiella pneumoniae MITC95: 95% growth inhibition; for Klebsiella pneumoniae expressing VIM-1 (IHMA 599644) MITC95: concentration giving 95% inhibition of bacterial growth
# Procedure: as §1, §2, §3, §4
# [3] = test system: Escherichia coli expressing NDM-1 (CLB30016); assay: as above; format: cell-based; settings: for Escherichia coli MITC95: 95% growth inhibition; for Escherichia coli expressing NDM-1 (CLB 30016) MITC95: concentration giving 95% inhibition of bacterial growth
# Procedure: as §1, §2, §3, §4
# VIM-1 = VIM-1 (Pseudomonas aeruginosa (strain ATCC 15692 / DSM 22644 / CIP 104116 / JCM 14847 / LMG 12228 / 1C / PRS 101 / PAO1), UniProt A0A0F7KYQ8); assay: Enzyme activity: determination of IC50, fluorescence assay with CCF2-FA substrate (VIM-1); format: biochemical
# [4] = IMP-1 enzyme, CCF2-FA fluorescence assay
# [5] = NDM-1 enzyme, CCF2-FA fluorescence assay
# [6] = Serratia marcescens expressing IMP-1 (CL5741)
# [7] = Klebsiella pneumoniae expressing VIM-1 (IHMA599644)
# [8] = Escherichia coli expressing NDM-1 (CLB30016)
# [9] = VIM-1 enzyme, CCF2-FA fluorescence assay, read-out: VIM-1 IC50
# [10] = IMP-1 enzyme, CCF2-FA substrate
# [11] = Serratia marcescens CL5741 (IMP-1)
# [12] = Klebsiella pneumoniae IHMA599644 (VIM-1)
# [13] = fluorescence assay with CCF2-FA substrate
# [14] = fluorescence assay with CCF2-FA substrate, read-out: VIM-1 IC50
# [15] = VIM-1 IC50, fluorescence assay with CCF2-FA substrate
# [16] = VIM-1 enzyme, CCF2-FA substrate, read-out: VIM-1 IC50
# Chain of NDM-1 (C7C422 whole entry, looked up, species assumed): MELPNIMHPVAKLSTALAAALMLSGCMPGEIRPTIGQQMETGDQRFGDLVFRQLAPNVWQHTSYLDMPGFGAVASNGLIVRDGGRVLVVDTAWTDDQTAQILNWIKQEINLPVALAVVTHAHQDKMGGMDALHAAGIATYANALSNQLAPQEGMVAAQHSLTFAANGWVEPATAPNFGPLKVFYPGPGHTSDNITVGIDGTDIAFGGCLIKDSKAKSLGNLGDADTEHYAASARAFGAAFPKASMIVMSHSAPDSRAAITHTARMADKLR
# Chain of IMP-1 (P52699 whole entry, looked up): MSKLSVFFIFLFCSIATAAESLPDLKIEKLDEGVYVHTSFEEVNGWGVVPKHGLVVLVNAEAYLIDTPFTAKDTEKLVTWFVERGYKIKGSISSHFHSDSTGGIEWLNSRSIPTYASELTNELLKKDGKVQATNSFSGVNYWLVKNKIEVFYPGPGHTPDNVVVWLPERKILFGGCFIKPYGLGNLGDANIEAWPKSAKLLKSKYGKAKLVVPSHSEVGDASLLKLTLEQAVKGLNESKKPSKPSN
Compound,IC50 (IMP-1; [13]),IC50 (NDM-1; [13]),Serratia marcescens expressing IMP-1 (CL5741) MITC95 [1],Klebsiella pneumoniae expressing VIM-1 (IHMA 599644) MITC95 [2],Escherichia coli expressing NDM-1 (CLB 30016) MITC95 [3],IC50 (VIM-1; [14]),other results
"Cl.Cl.NC1CNCCC1(O)c1ccc(-c2cccc(S(N)(=O)=O)c2-c2nn[nH]n2)cc1 (racemic) [Example 282, 4′-(3-amino-4-hydroxypiperidin-4-yl)-2-(2H-tetrazol-5-yl)-[1,1′-biphenyl]-3-sulfonamide dihydrochloride (trans, racemate)]",,,,,,,"IC50 (IMP-1; [4]): 266 nM; IC50 (NDM-1; [5]): 21.5 nM; Serratia marcescens MITC95 [1, 6]: 1.563 µM; Klebsiella pneumoniae MITC95 [2, 7]: 12.5 µM; Escherichia coli MITC95 [3, 8]: 0.7813 µM; IC50 (VIM-1; [9]): 183 nM"
"CCC(CO)NCc1ccc(-c2cccc(S(N)(=O)=O)c2-c2nnn[nH]2)cc1 (stereo in doubt) [Example 345, 4′-({[(1S)-1-(hydroxymethyl)propyl]amino}methyl)-2-(1H-tetrazol-5-yl)biphenyl-3-sulfonamide]",,,,,,,"IC50 (IMP-1; [4]): 213 nM; IC50 (NDM-1; [5]): 18.5 nM; Serratia marcescens MITC95 [1, 6]: 4.688 µM; Klebsiella pneumoniae MITC95 [2, 7]: 50 µM; Escherichia coli MITC95 [3, 8]: 1.563 µM; IC50 (VIM-1; [9]): 269 nM"
"NS(=O)(=O)c1cccc(-c2ccc(CN3CCC(CO)C3)cc2)c1-c1nnn[nH]1 (stereo in doubt) [Example 391, 4′-{[(3S)-3-(hydroxymethyl)pyrrolidin-1-yl]methyl}-2-(1H-tetrazol-5-yl)biphenyl-3-sulfonamide]",,,,,,,"IC50 (IMP-1; [4]): 348 nM; IC50 (NDM-1; [5]): 18.9 nM; Serratia marcescens MITC95 [1, 6]: 2.344 µM; Klebsiella pneumoniae MITC95 [2, 7]: 50 µM; Escherichia coli MITC95 [3, 8]: 1.172 µM; IC50 (VIM-1; VIM-1 IC50, VIM-1 enzyme, CCF2-FA fluorescence assay): 401 nM"
"NS(=O)(=O)c1cccc(-c2ccc(N3CCC3CO)nc2)c1-c1nnn[nH]1 (stereo in doubt) [Example 636, 3-[6-[(2S)-2-(hydroxymethyl)azetidin-1-yl]-3-pyridyl]-2-(1H-tetrazol-5-yl)benzenesulfonamide]",,,,,,,"IC50 (IMP-1; [10]): 37.2 nM; IC50 (NDM-1; NDM-1 enzyme, CCF2-FA substrate): 1.54 nM; Serratia marcescens MITC95 [1, 11]: 4.688 µM; Klebsiella pneumoniae MITC95 [2, 12]: >200 µM; Escherichia coli MITC95 ([3]; (CLB30016, NDM-1)): 0.3906 µM; IC50 (VIM-1; VIM-1 IC50, VIM-1 enzyme, CCF2-FA substrate): 88.9 nM"
"N=C(N)N1CCC(c2ccc(-c3cccc(S(N)(=O)=O)c3-c3nn[nH]n3)cc2)CC1 [Example 32, 4-(3′-Sulfamoyl-2′-(2H-tetrazol-5-yl)-[1,1′-biphenyl]-4-yl)piperidine-1-carboximidamide]",18 nM,3.46 nM,0.7813 µM,25 µM,0.5859 µM,77.8 nM,
"C[N+]1(C)CCC(c2ccc(-c3cccc(S(N)(=O)=O)c3-c3nnn[nH]3)cc2)CC1.O=C([O-])C(F)(F)F [Example 33, 1,1-dimethyl-4-(3′-sulfamoyl-2′-(1H-tetrazol-5-yl)-[1,1′-biphenyl]-4-yl)piperidin-1-ium 2,2,2-trifluoroacetate]",70.6 nM,16.6 nM,1.172 µM,100 µM,1.172 µM,832 nM,
"Cc1nnc2ccc(-c3cccc(S(N)(=O)=O)c3-c3nnn[nH]3)cn12 [Example 113, 3-(3-methyl-[1,2,4]triazolo[4,3-a]pyridin-6-yl)-2-(1H-tetrazol-5-yl)benzenesulfonamide]",14800 nM,15.4 nM,200 µM,50 µM,3.125 µM,313 nM,
"Cc1cc2nccn2cc1-c1cccc(S(N)(=O)=O)c1-c1nnn[nH]1 [Example 115, 3-(7-methylimidazo[1,2-a]pyridin-6-yl)-2-(1H-tetrazol-5-yl)benzenesulfonamide]",544 nM,7.81 nM,18.75 µM,37.5 µM,0.25 µM,,IC50 (VIM-1; [15]): 54.4 nM
"NS(=O)(=O)c1cccc(-c2ccc(-n3cccn3)nc2)c1-c1nnn[nH]1 [Example 117, 3-(6-(1H-pyrazol-1-yl)pyridin-3-yl)-2-(1H-tetrazol-5-yl)benzenesulfonamide]",134 nM,5.18 nM,6.25 µM,100 µM,1.172 µM,135 nM,
"NS(=O)(=O)c1cccc(-c2cccc(S(N)(=O)=O)c2-c2nnn[nH]2)c1 [Example 118, 2-(1H-tetrazol-5-yl)-[1,1′-biphenyl]-3,3′-disulfonamide]",1330 nM,44.2 nM,18.75 µM,50 µM,0.7813 µM,492 nM,
"NS(=O)(=O)c1cccc(-c2cccc(CO)c2)c1-c1nnn[nH]1 [Example 119, 3′-(hydroxymethyl)-2-(1H-tetrazol-5-yl)-[1,1′-biphenyl]-3-sulfonamide]",548 nM,16.2 nM,18.75 µM,50 µM,1.563 µM,,IC50 (VIM-1; [15]): 261 nM
"NS(=O)(=O)c1cccc(-c2cccc3c2CNC3=O)c1-c1nnn[nH]1 [Example 120, 3-(1-oxoisoindolin-4-yl)-2-(1H-tetrazol-5-yl)benzenesulfonamide]",777 nM,1.42 nM,18.75 µM,4.688 µM,0.7813 µM,,IC50 (VIM-1; [15]): 4.99 nM
"C[N+]1(C)CCC(Cc2ccc(-c3ccc(C4CNC4)cc3)c(-c3nn[nH]n3)c2S(N)(=O)=O)CC1 [Example 605, 3-[4-(azetidin-3-yl)phenyl]-6-[(1,1-dimethylpiperidin-1-ium-4-yl)methyl]-2-(2H-tetrazol-5-yl)benzenesulfonamide]",,,,,,,"IC50 (IMP-1; [10]): 160 nM; Serratia marcescens MITC95 [1, 11]: 6.25 µM; Klebsiella pneumoniae MITC95 [2, 12]: 3.125 µM; Escherichia coli MITC95 ([3]; (CLB30016, NDM-1)): 6.25 µM; IC50 (VIM-1; [16]): 3.89 nM"
"Cn1ccnc1CN1CCC(c2ccc(-c3cccc(S(N)(=O)=O)c3-c3nnn[nH]3)cc2)CC1 [Example 621, 3-[4-[1-[(1-methylimidazol-2-yl)methyl]-4-piperidyl]phenyl]-2-(1H-tetrazol-5-yl)benzenesulfonamide]",,,,,,,"Serratia marcescens MITC95 [1, 11]: 1.563 µM; Klebsiella pneumoniae MITC95 [2, 12]: >200 µM; Escherichia coli MITC95 ([3]; (CLB30016, NDM-1)): 3.906 µM; IC50 (VIM-1; [16]): 508 nM"
